{"source": "patent US20020035106A1", "about": "“Use of potassium channel agonists for reducing fat food consumption” (priority 2000, published 2002)", "key": {"[1]": {"test_system": "rats", "settings": "cited from earlier work"}, "[2]": {"test_system": "fed male obese Zucker rat", "test": "The snacking model: consumption of a palatable high fat or low fat meal", "type": "in vivo", "source_text": "Rats are habituated to the presence of a palatable high fat meal (Research diets 45% fat D12451) or another palatable low fat meal (Research diets 10% fat D12450B) in their home cage during four hours in the morning two times a week, 9-13a.m. The rats feed ad libitum on rat chow (Altromin #1324, 4% fat) outside the hours of the session and water is present adlibitum. The consumption of the meal is monitored, and as it stabilises, by 7-9 sessions, the animal is ready for use.\nThe animals are tested two times a week, and the baseline is re-established within 24h. During the experimental session, the compound is administered 30 minutes before the session starts. Food and water intake is monitored at 2 and 4 hours after the meal is presented."}, "[3]": {"test_system": "mice", "settings": "intracerebroventricular administration; cited from earlier work"}, "[4]": {"biological_target": "T1, KATP-channels on pancreatic beta-cells (Homo sapiens, UniProt Q09428)", "T1 construct": "KATP-channels on pancreatic beta-cells; host or cells: pancreatic beta-cells (endogenous)", "T1 sequence (Q09428 whole entry)": "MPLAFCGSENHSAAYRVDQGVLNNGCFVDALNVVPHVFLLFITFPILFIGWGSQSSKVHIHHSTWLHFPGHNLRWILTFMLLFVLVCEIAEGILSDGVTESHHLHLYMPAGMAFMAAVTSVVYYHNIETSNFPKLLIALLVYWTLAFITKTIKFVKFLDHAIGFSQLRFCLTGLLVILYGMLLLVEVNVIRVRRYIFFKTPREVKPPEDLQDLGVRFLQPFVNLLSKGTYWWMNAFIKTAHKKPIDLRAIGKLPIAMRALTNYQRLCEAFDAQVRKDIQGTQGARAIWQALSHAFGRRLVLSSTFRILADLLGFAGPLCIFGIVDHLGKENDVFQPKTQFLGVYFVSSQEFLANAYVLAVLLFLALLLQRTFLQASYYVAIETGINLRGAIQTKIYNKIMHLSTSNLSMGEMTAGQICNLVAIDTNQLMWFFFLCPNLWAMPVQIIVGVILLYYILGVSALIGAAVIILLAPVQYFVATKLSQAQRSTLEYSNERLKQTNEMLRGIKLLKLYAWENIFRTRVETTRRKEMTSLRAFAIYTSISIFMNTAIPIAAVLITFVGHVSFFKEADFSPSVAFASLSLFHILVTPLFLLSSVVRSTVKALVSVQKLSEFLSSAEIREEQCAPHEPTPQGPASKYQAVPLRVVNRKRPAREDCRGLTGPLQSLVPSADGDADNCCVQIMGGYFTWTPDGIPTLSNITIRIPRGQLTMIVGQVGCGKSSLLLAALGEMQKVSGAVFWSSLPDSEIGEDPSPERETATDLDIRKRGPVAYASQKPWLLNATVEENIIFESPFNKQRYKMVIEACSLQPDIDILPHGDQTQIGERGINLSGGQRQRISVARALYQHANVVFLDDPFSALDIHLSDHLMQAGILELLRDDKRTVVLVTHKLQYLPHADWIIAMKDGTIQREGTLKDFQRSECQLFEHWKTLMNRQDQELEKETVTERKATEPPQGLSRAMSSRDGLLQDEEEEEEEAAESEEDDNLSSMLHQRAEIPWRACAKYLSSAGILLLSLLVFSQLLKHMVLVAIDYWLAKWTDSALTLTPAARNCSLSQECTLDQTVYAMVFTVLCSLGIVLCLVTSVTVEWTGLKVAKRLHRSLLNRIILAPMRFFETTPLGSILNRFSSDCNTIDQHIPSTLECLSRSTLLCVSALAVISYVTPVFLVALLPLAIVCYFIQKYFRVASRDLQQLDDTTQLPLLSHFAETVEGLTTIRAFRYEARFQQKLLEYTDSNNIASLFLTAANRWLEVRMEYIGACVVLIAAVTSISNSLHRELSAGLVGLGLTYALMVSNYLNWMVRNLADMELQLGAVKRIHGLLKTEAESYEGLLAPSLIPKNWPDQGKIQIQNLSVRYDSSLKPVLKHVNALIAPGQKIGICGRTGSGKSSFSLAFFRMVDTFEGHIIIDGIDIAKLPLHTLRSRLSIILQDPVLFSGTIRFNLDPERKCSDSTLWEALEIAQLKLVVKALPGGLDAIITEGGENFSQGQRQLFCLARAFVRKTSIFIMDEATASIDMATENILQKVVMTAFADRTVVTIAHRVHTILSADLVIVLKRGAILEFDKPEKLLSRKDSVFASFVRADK", "T1 sequence (Q14654 whole entry partner)": "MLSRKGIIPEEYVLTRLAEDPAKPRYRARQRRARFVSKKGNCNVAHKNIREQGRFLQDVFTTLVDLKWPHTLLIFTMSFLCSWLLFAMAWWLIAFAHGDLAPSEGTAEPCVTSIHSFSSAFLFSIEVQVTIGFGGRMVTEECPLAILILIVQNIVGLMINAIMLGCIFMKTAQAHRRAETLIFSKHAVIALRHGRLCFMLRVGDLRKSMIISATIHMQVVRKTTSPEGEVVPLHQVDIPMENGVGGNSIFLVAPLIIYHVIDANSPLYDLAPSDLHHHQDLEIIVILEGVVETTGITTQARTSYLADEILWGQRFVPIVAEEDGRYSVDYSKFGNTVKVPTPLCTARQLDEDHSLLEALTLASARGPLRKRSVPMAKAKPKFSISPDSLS", "settings": "by activation of KATP-channels on pancreatic beta-cells; cited from earlier work"}, "[5]": {"test_system": "obese Zucker rats", "settings": "cited from earlier work"}, "[6]": {"test_system": "hyperinsulinemic obese individuals", "settings": "8 weeks treatment; cited from earlier work"}, "[7]": {"settings": "30 mg/kg PO admin., 30 minutes before session"}}, "data": [{"smiles": "COc1ccc(Cl)cc1C(=O)NCCc1ccc(S(=O)(=O)NC(=O)NC2CCCCC2)cc1", "note": "[glibenclamide]", "values": [{"measurement": "food intake", "setting": "[1]; central administration", "result": "reduce food intake"}]}, {"smiles": "CC1(NC2=NS(=O)(=O)c3sc(Cl)cc3N2)CC1", "note": "[6-Chloro-3-(1-methylcyclopropyl)amino-4H-thieno[3,2-e]-1,2,4-thiadiazine 1,1-dioxide]", "values": [{"measurement": "reduced consumption of a high fat meal (45 kcal % fat)", "setting": "[2]; 5 mg/kg PO admin.", "result": 44, "unit": "%"}, {"measurement": "reduced consumption of a low fat meal (10 kcal % fat)", "setting": "[2]; 5 mg/kg PO admin.", "result": 15, "unit": "%"}, {"measurement": "reduced consumption of a high fat meal (45 kcal % fat)", "setting": "[2]; 15 mg/kg PO admin.", "result": 64, "unit": "%"}, {"measurement": "reduced consumption of a low fat meal (10 kcal % fat)", "setting": "[2]; 15 mg/kg PO admin.", "result": 57, "unit": "%"}, {"measurement": "reduced consumption of a high fat meal (45 kcal % fat)", "setting": "[2]; [7]", "result": 86, "unit": "%"}, {"measurement": "reduced consumption of a low fat meal (10 kcal % fat)", "setting": "[2]; [7]", "result": 75, "unit": "%"}]}, {"smiles": "CC(N/C(=N\\C#N)Nc1ccncc1)C(C)(C)C", "note": "(stereo not drawn) [pinacidil]", "values": [{"measurement": "intake of food", "setting": "[3]", "result": "increase to intake of food"}]}, {"smiles": "CC1=Nc2ccc(Cl)cc2S(=O)(=O)N1", "note": "[Diazoxide, 7-chloro-3-methyl-2H-1,2,4-benzothiadiazine 1,1-dioxide]", "values": [{"measurement": "reduced consumption of a high fat meal (45 kcal % fat)", "setting": "[2]; [7]", "result": 53, "unit": "%"}, {"measurement": "reduced consumption of a low fat meal (10 kcal % fat)", "setting": "[2]; [7]", "result": 42, "unit": "%"}, {"measurement": "insulin release", "setting": "[4]", "result": "inhibit insulin release"}, {"measurement": "leptin and lipid metabolising enzymes", "setting": "[5]; adipose tissue of Zucker rats", "result": "down-regulate leptin and lipid metabolising enzymes"}, {"measurement": "glucose tolerance", "setting": "[5]; obese Zucker rats", "result": "improve glucose tolerance"}, {"measurement": "insulin receptor binding", "setting": "[5]; obese Zucker rats", "result": "increase insulin receptor binding"}, {"measurement": "insulin secretion", "setting": "[5]; obese Zucker rats", "result": "decrease insulin secretion"}, {"measurement": "weight gain", "setting": "[5]; obese Zucker rats", "result": "decrease weight gain"}, {"measurement": "antiobesity effect", "setting": "[6]", "result": "significant antiobesity effect"}]}, {"smiles": "CC(C)NC1=NS(=O)(=O)c2sc(Cl)cc2N1", "note": "[6-Chloro-3-isopropylamino-4H-thieno[3,2-e]-1,2,4-thiadiazine 1,1-dioxide]", "values": [{"measurement": "reduced consumption of a high fat meal (45 kcal % fat)", "setting": "[2]; [7]", "result": 77, "unit": "%"}, {"measurement": "reduced consumption of a low fat meal (10 kcal % fat)", "setting": "[2]; [7]", "result": 61, "unit": "%"}]}, {"smiles": "CC1(C)Oc2ccc(C#N)cc2C(N2CCCC2=O)C1O", "note": "(stereo not drawn) [cromakalim]", "values": [{"measurement": "intake of food", "setting": "[3]", "result": "increase to intake of food"}, {"measurement": "intake of food", "setting": "[1]; intraperitonal administration", "result": "reduces the intake of food"}]}]}
